Source: paper PMC8764033, “Single-molecule analysis of specificity and multivalency in binding of short linear substrate motifs to the APC/C” (Nature Communications, 2022)
pKd: −log10 of the molar value. Where a SMILES comes first, the peptide text is derived from it.

Assays:
[1] = target: T1, Cdh1 WD40 domain (yeast) (Saccharomyces cerevisiae, UniProt P53197); assay: Fluorescence anisotropy, 10 nM Cy5-labeled degron peptide, yeast Cdh1 WD40; format: binding; conditions: up to 30.6 µM Cdh1^WD40; for pKd: Fig. 1a, mean of 2 or 3 independent experiments, wash buffer B, 25 °C, dark peptide where named 100 µM unlabeled, read-out: KD (mean ± SE)
T1 construct: the WD40 domains of yeast Cdh1 (aa 241–550; pNH144); 2xStrep-Tag II (N); made in house; host or cells: Sf9 insect cells (baculovirus)
T1 sequence (P53197 241-550): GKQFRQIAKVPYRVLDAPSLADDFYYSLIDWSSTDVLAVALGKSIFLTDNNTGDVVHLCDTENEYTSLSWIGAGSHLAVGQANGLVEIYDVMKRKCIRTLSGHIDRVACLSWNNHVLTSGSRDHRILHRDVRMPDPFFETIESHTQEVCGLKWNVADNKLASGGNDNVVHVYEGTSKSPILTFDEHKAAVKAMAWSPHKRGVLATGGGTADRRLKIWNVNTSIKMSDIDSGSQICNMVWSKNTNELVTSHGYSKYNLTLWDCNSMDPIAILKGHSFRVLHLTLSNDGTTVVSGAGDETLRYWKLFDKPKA
From the text: To determine the affinities of APC/C degrons for their binding sites, we first used conventional equilibrium binding assays of degron peptide binding to the activator. We used the baculovirus system to produce the WD40 domain of Cdh1 from the budding yeast Saccharomyces cerevisiae and measured fluorescence anisotropy to assess the binding of fluorescently-tagged degron peptides at increasing activator concentrations. The WD40 domain of yeast Cdc20 could not be expressed and was not studied.
Activators were cloned into the pFastBac HT A vector, with an N-terminal 2xStrep-Tag II. For some experiments, we constructed vectors for expression of the WD40 domains of yeast Cdh1 (aa 241–550; pNH144), human Cdh1 (aa 165–484; pNH164), or human Cdc20 (aa 162–484; pNH188). For SMOR, a C-terminal GFP tag was added. Bacmid plasmids are listed in Supplementary Table 3. Plasmids were transformed into DH10Bac cells, and purified Bacmid was used to transfect Sf9 cells to generate P1 baculovirus, which was used to generate P2 virus. SF9 cells were infected with the P2 virus for 48 h. Flash-frozen pellets were lysed by sonication or high-pressure homogenization in lysis buffer B (50 mM Tris-HCl pH 8, 150 mM KCl, 0.5 mM EDTA, 1 mM DTT, 10% Glycerol, EDTA-free protease inhibitor tablet, 1 µg ml^−1 pepstatin A). After the lysate was applied to the StrepTrap column, the column was washed with wash buffer B (lysis buffer B lacking protease inhibitors) and eluted in the same buffer containing 2.5 mM desthiobiotin.
Fluorescent degron peptides carried a C-terminal Cy5 label (CPC Scientific) and are listed in Supplementary Table 4. For anisotropy experiments, 10 nM fluorescent peptide was mixed with various concentrations of purified Cdh1 WD40 in wash buffer B at room temperature for 1 min, which we determined was sufficient for the binding reaction to reach equilibrium. Fluorescence was measured on a K2 Multifrequency Fluorometer at 25 °C. All Cy5-labeled peptides were excited with polarized light at 635 nm and emission was detected using a 700/75 nm bandpass filter (ET series, Chroma). […] Data were fitted to one-site equilibrium binding using GraphPad Prism version 8.4 to determine KD. Results were the same when peptide binding was measured in the buffer used in SMOR assays (buffer C, below).

[2] = target: T2, hCdh1^WD40 (Homo sapiens, UniProt Q9UM11); assay: Fluorescence anisotropy, 10 nM Cy5-labeled peptide, hCdh1^WD40; format: binding
T2 construct: human Cdh1 (aa 165–484; pNH164); made in house; host or cells: Sf9 insect cells (baculovirus)
T2 sequence (Q9UM11 165-484): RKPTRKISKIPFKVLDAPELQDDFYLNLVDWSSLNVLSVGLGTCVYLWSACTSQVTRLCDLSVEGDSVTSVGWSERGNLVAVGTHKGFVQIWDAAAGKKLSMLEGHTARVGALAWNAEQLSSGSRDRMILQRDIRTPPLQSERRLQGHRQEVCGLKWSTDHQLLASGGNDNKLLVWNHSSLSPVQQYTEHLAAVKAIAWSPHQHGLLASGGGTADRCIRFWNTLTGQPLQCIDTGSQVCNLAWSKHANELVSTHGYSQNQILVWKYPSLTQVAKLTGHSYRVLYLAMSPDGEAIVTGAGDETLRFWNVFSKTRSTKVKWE
Method: Activators were cloned into the pFastBac HT A vector, with an N-terminal 2xStrep-Tag II. For some experiments, we constructed vectors for expression of the WD40 domains of yeast Cdh1 (aa 241–550; pNH144), human Cdh1 (aa 165–484; pNH164), or human Cdc20 (aa 162–484; pNH188). For SMOR, a C-terminal GFP tag was added. Bacmid plasmids are listed in Supplementary Table 3. Plasmids were transformed into DH10Bac cells, and purified Bacmid was used to transfect Sf9 cells to generate P1 baculovirus, which was used to generate P2 virus. SF9 cells were infected with the P2 virus for 48 h. […]
Fluorescent degron peptides carried a C-terminal Cy5 label (CPC Scientific) and are listed in Supplementary Table 4. For anisotropy experiments, 10 nM fluorescent peptide was mixed with various concentrations of purified Cdh1 WD40 in wash buffer B at room temperature for 1 min, which we determined was sufficient for the binding reaction to reach equilibrium. Fluorescence was measured on a K2 Multifrequency Fluorometer at 25 °C. All Cy5-labeled peptides were excited with polarized light at 635 nm and emission was detected using a 700/75 nm bandpass filter (ET series, Chroma). […] Results were the same when peptide binding was measured in the buffer used in SMOR assays (buffer C, below). […]

Molecule | pKd [1] | binding to Cdh1 (in words) [1] | binding to human Cdh1 (in words) [2]
CC(C)C[C@H](NC(=O)[C@H](C)NC(=O)[C@H](CCCNC(=N)N)NC(=O)[C@H](CCCNC(=N)N)NC(=O)[C@@H]1CCCN1C(=O)[C@H](CCCCN)NC(=O)[C@H](CO)NC(=O)[C@H](CC(=O)O)NC(=O)[C@@H](N)CCC(N)=O)C(=O)N[C@H](C(=O)N[C@@H](CC(=O)O)C(=O)N[C@H](C(=O)N1CCC[C@H]1C(=O)N[C@H](C(=O)N[C@@H](CC(N)=O)C(=O)N[C@@H](CC(N)=O)C(=O)N[C@@H](CC(N)=O)C(=O)N1CCC[C@H]1C(=O)N[C@@H](CC(C)C)C(=O)N[C@@H](CO)C(=O)N[C@@H](CCC(N)=O)C(=O)N[C@@H](CCCCN)C(=O)O)C(C)C)C(C)C)[C@@H](C)O [Clb5 D box] (H-QDSKPRRALTDVPVNNNPLSQK-OH; N-terminus and C-terminus assumed) | < 4.51 | Neither D box displayed significant binding to Cdh1 | 
CC[C@H](C)[C@H](NC(=O)[C@H](CC(=O)O)NC(=O)[C@H](CO)NC(=O)[C@H](C)NC(=O)[C@H](C)NC(=O)[C@H](C)NC(=O)[C@H](C)NC(=O)[C@H](CCCCN)NC(=O)[C@@H]1CCCN1C(=O)[C@H](CCCCN)NC(=O)[C@H](CCC(N)=O)NC(=O)[C@@H](N)CCC(=O)O)C(=O)N[C@H](C(=O)N[C@@H](C)C(=O)N[C@@H](CO)C(=O)N[C@@H](Cc1ccccc1)C(=O)N[C@@H](CC(N)=O)C(=O)N[C@@H](CCCCN)C(=O)N[C@@H](CCSC)C(=O)N[C@@H](CC(N)=O)C(=O)N[C@@H](CCCCN)C(=O)O)[C@@H](C)O [Hsl1 D box mutant] (H-EQKPKAAAASDITASFNKMNK-OH; N-terminus and C-terminus assumed) | < 4.51 | Binding was abolished | 
CC[C@H](C)[C@H](NC(=O)[C@H](Cc1ccccc1)NC(=O)[C@H](CO)NC(=O)[C@H](CCCCN)NC(=O)[C@H](CO)NC(=O)[C@H](CCCNC(=N)N)NC(=O)[C@H](CC(N)=O)NC(=O)[C@H](CC(N)=O)NC(=O)[C@H](CC(=O)O)NC(=O)[C@H](CCCCN)NC(=O)[C@H](C)NC(=O)[C@H](C)NC(=O)[C@H](CC(C)C)NC(=O)[C@@H]1CCCN1C(=O)[C@H](CC(C)C)NC(=O)[C@H](CCCNC(=N)N)NC(=O)CNC(=O)[C@H](CCC(N)=O)NC(=O)[C@H](CCC(N)=O)NC(=O)[C@H](CCC(N)=O)NC(=O)[C@H](C)N)C(=O)N[C@@H](CCCCN)C(=O)O [ySecurin D box] (H-AQQQGRLPLAAKDNNRSKSFIK-OH; N-terminus and C-terminus assumed) | < 4.51 | Neither D box displayed significant binding to Cdh1 | 
LIYVDKENGEPGTR-K(Cy5) [hSecurin KEN, Cy5-labeled KEN box peptide of human securin/Pttg1] |  |  | significant but low-affinity binding to Cdh1
LPKATRKALGTVNRATEKSVK-K(Cy5) [AurKB D box, Cy5-labeled D box peptide of Aurora B kinase] |  |  | significant but low-affinity binding to Cdh1
SKAAQFMLYEETAEERNI-K(Cy5) [Acm1 ABBA, Cy5-labeled Cdh1-specific ABBA motif from pseudosubstrate yeast protein Acm1] |  | bound with very low affinity to Cdh1 | 
